Patent publication US12268670B2, “Combination of small molecule CD-47 inhibitors with other anti-cancer agents” (Aurigene Oncology Limited, priority 2018, dated 2025)
Marks after values point to notes of the source that are not given here.

How the values were obtained:
[1] = test system: luciferase expressing Raji (lymphoma cell line) cells; experiment: Luciferase based phagocytosis assay (macrophages, combination with anti-human CD20 antibody); type: cell-based; settings: in combination with anti-human CD20 antibody, compared with compound alone; FIG. 1
Method: In vitro phagocytosis assay was performed to evaluate the ability of test item to enhance the phagocytic activity of macrophages. Monocytes were isolated from blood of healthy donor and cultured for 6-8 days using 10% RPMI (Roswell Park Memorial Institute) media and recombinant human M-CSF to differentiate into macrophages. Media was changed every alternate day. After differentiation, adherent macrophages were collected by gentle scraping and cultured in 10% RPMI overnight at a density of 0.1 million per well in 48 well tissue culture plate. Simultaneously, luciferase expressing Raji (lymphoma cell line) cells were cultured in 10% RPMI media with 100 μg/mL of hygromycin B in tissue culture flask. On the day of phagocytosis, macrophages were serum starved for 2 hours. 0.4 million luciferase expressing Raji cells per well were incubated with anti-human CD47 antibody or Mouse IgG1 K Isotype Control antibody or various concentrations of selected compounds of the present invention alone or in combination with anti-human CD20 antibody in serum free media for 30 min at 37° C. and added into respective well of the 48 well plate seeded with macrophages. […] Luminescence reading was taken using plate reader after transferring the content of each well to white plate. Intensity of luminescence indicated the extent of phagocytosis. […]

[2] = test system: H929 (multiple myeloma cell line) cells; experiment: Human macrophage phagocytosis assay in combination with bortezomib; type: cell-based; settings: H929 cells treated with 10 nM bortezomib for 48 hrs, compared with compound alone; FIG. 2
Method: In vitro phagocytosis assay was performed to evaluate the ability of test item to enhance the phagocytic activity of macrophages. Monocytes were isolated from blood of healthy donors and cultured for 6-8 days using complete RPMI (Roswell Park Memorial Institute) supplemented with 20 ng/mL recombinant human M-CSF to differentiate them into macrophages. Media was changed every alternate day. Simultaneously H929 cells were cultured in complete RPMI media and treated with 10 nM bortezomib for 48 hrs. Macrophages were starved for 2 hrs in serum free RPMI.CFSE stained, Bortezomib treated/untreated H929 (multiple myeloma cell line) cells were seeded at a density of 0.2×10^6 cells/well in 96-well low attachment plate and treated with anti-human CD47 purified B6H12 (5 μg/mL)/Mouse IgG1 K Isotype Control antibody (5 μg/mL)/different concentrations of selected compounds of the present invention in serum free media for 30 min at 37° C. Serum starved macrophages were added to H929 cells at a ratio of 1:4 (macrophages:H929 cells) and incubated for 2 hours at 37° C. Cells in each well were stained with anti-human CD11b APC for 30 minutes at 4° C. in dark followed by fixation and FACS analysis. Cells positive for FITC and APC were considered as H929 cells phagocytosed by macrophages. Data acquired using FACS verse was analysed using Flow Jo software.

[3] = test system: A20 syngeneic lymphoma model; experiment: Efficacy study in A20 syngeneic lymphoma model; type: in vivo, Balb/c mice
From the text: Female Balb/c (BALB/cAnNTac) mice (6-8 weeks-old) bred in-house were used in this efficacy study in the A20 syngeneic lymphoma model. The animals were marked individually with tail marks and kept in cages that were identified by a cage card showing the study code, date of experimentation, sex and number of animals. During the experiment, the animals were weighed daily. A20 cell line (B-cell lymphoma line derived from a spontaneous reticulum cell neoplasm found in an old BALB/cAnN mouse) was procured from ATCC.
When the mean tumor volumes reached approximately 75 mm^3, the animals were randomized based on tumor volumes into four groups (G1 to G4) of twelve animals (N=12) each and dosed with vehicle, Compound 6, anti-mouse PD-L1 antibody and the combination of Compound 6 and anti-mouse PD-L1 antibody as mentioned below:
The treatment was continued for a period of 21 days, during which the overall efficacy and tolerability were evaluated based on tumor volume and body weight changes observed during the treatment period.
Individual animal body weights were recorded daily before the administration of Compound 6 throughout the experimental period. […] The tumor volumes were measured in all treatment group animals thrice a week (once every 2-3 days) using a digital Vernier callipers. From an ethical viewpoint, any treatment/control group with a mean tumor weight in excess of 10% of animal body weight were humanely sacrificed. As a measure of efficacy, the % T (treatment)/C(control) and % TGI (% Tumor growth inhibition) values were calculated. Graphs and statistical analysis were performed using GraphPad Prism®, Version 7.0. For analysis of tumor volume data, statistical comparison was done on Day 18 for all groups using One-way ANOVA with Dunnett's multiple comparison test. All analyses and comparisons was evaluated at the 5% (p<0.05) level. A “p” value less than 0.05 was considered as significant.

N=C(N)NCCC[C@H](NC(=O)N1CCCC1C(=O)O)c1nc([C@@H](N)CCC(=O)O)no1 (stereo partly shown) [Compound 3]
phagocytosis of lymphoma cells (luminescence intensity) [1]: Enhanced phagocytosis | phagocytosis of multiple myeloma cells (FACS, FITC and APC positive cells) [2]: Enhanced phagocytosis

NC(=O)CC[C@H](N)c1noc(CNC(=O)N2CCCC2C(=O)O)n1 (stereo partly shown) [Compound 6]
phagocytosis of lymphoma cells (luminescence intensity) [1]: Enhanced phagocytosis | % TGI ([3]; A20 tumor bearing Balb/c mice, Compound 6 30 mg/kg bid oral, anti-mouse PD-L1 antibody 200 μg/animal i.p. Day 1, 3, 6, 9, statistics on Day 18): 72* % | tolerability (clinical signs, mortality) ([3]; Compound 6 30 mg/kg bid, single agent or in combination with PD-L1 antibody, 21 days): well tolerated without any treatment related clinical signs and mortality | tumor growth inhibition (TGI) ([3]; at the end of treatment period (21 days), Compound 6 30 mg/kg, A20 tumor bearing mice): 72% | phagocytosis of multiple myeloma cells (FACS, FITC and APC positive cells) [2]: Enhanced phagocytosis
